Assay: xn = mol fraction of the nth substance listed
Conditions: 101 kPa, Liquid, Pycnometric method

NC=O [formamide] + CCO
mass density [kg/m3]
Conditions	293.15 K	298.15 K	303.15 K	308.15 K	313.15 K	318.15 K
x1 = 0.0698	807.47	803.3	799.14	794.94	790.75	786.59
x1 = 0.1412	826.72	822.6	818.49	814.41	810.28	806.17
x1 = 0.2032	844.13	840.06	835.99	831.94	827.87	823.84
x1 = 0.268	862.91	858.91	854.91	850.86	846.85	842.82
x1 = 0.3234	879.65	875.69	871.68	867.71	863.74	859.75
x1 = 0.3874	899.52	895.58	891.65	887.7	883.75	879.8
x1 = 0.4365	915.29	911.35	907.45	903.54	899.61	895.7
x1 = 0.4962	935.06	931.19	927.32	923.4	919.52	915.62
x1 = 0.5423	950.83	946.93	943.06	939.2	935.3	931.42
x1 = 0.5958	969.63	965.8	961.95	958.11	954.29	950.42
x1 = 0.6456	987.65	983.82	979.98	976.18	972.35	968.54
x1 = 0.708	1010.93	1007.05	1003.21	999.36	995.49	991.62
x1 = 0.7748	1036.9	1033.01	1029.13	1025.26	1021.35	1017.44
x1 = 0.8532	1068.57	1064.68	1060.75	1056.82	1052.93	1049.03
x1 = 0.9282	1100.66	1096.71	1092.76	1088.83	1084.87	1080.95
x1 = 1	1133	1129	1125	1121	1117	1113

— the NIST ThermoML archive (doi:10.1016/j.jct.2006.07.021)
